According to ChEMBL document CHEMBL4251601 (Eur J Med Chem, 2018):

Key:
[1] = molecular target: Cyclin-dependent kinase 4/cyclin D1 (Homo sapiens, UniProt P11802); assay: Inhibition of CDK4/Cyclin-D1 (unknown origin) using histone-H1 as substrate after 90 mins by ADP-Glo assay; assay type: protein-complex assay
CDK1/Cyclin A = CDK1/Cyclin A (Homo sapiens, UniProt P06493); assay: Inhibition of CDK1/Cyclin-A2 (unknown origin) using histone-H1 as substrate after 90 mins by ADP-Glo assay; assay type: protein-complex assay
Sequence of CDK1/Cyclin A (P06493 whole entry): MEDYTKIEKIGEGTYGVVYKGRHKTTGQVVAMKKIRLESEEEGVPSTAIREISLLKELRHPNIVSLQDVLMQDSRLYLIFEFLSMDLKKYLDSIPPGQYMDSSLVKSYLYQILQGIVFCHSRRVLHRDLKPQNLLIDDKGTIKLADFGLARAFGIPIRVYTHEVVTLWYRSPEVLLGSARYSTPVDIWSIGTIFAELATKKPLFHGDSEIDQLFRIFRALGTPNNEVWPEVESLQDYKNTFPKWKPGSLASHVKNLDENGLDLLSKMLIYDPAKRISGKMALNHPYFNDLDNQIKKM
Sequence of CDK1/Cyclin A (P20248 whole entry, further chain): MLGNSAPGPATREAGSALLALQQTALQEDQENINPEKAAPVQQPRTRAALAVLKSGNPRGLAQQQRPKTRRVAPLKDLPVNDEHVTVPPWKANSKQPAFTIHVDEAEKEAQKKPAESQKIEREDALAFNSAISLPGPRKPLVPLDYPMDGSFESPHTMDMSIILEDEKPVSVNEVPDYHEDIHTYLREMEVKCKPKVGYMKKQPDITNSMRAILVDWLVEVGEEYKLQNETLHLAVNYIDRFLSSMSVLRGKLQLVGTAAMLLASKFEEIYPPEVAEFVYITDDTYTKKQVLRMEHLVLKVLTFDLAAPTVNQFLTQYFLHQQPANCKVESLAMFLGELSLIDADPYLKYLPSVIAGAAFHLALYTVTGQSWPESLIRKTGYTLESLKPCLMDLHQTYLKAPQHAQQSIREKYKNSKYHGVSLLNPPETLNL

Homo sapiens = organism: Homo sapiens; assay: Selectivity ratio of IC50 for CDK1/Cyclin-A2 (unknown origin) to IC50 for CDK6/Cyclin-D3 (unknown origin)
CDK6/cyclin D3 = CDK6/cyclin D3 (Homo sapiens, UniProt Q00534); assay: Inhibition of CDK6/Cyclin-D3 (unknown origin) using histoneH1 as substrate after 90 mins by ADP-Glo assay; assay type: protein-complex assay
Sequence of CDK6/cyclin D3 (P30281 whole entry): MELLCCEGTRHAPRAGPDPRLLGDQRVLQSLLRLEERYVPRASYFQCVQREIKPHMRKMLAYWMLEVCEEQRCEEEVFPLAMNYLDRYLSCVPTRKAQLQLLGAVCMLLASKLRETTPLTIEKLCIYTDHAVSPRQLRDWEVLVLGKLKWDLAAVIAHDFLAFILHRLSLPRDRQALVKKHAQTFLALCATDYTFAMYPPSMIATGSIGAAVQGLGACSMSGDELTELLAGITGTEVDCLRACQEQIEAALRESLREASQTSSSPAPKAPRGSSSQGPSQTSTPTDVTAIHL
Sequence of CDK6/cyclin D3 (Q00534 whole entry): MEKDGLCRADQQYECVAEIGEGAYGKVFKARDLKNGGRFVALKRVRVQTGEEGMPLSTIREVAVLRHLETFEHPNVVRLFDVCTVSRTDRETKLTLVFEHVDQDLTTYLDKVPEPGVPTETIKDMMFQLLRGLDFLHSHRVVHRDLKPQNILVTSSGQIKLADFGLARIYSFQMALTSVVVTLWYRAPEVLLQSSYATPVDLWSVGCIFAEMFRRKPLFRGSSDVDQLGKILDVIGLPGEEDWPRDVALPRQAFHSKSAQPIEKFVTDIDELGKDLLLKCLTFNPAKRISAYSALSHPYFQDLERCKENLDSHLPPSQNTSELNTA

[2] = AUC (0 to 24 hrs) in Sprague-Dawley rat at 5 mg/kg, po administered as single dose by LC-MS/MS analysis; assay type: ADME, organism-based; design: time < 24 hr, dose 5 mg/kg, route oral; settings: in vivo
[3] = Volume of distribution at steady state in Sprague-Dawley rat at 2 mg/kg, iv administered as single dose by LC-MS/MS analysis; assay type: ADME, organism-based; settings: in vivo, read-out: Vdss
[4] = Clearance in Sprague-Dawley rat at 2 mg/kg, iv administered as single dose by LC-MS/MS analysis; assay type: ADME, organism-based; settings: in vivo
[5] = Half life in Sprague-Dawley rat at 2 mg/kg, iv administered as single dose by LC-MS/MS analysis; assay type: ADME, organism-based; settings: in vivo
[6] = AUC (0 to infinity) in Sprague-Dawley rat at 2 mg/kg, iv administered as single dose by LC-MS/MS analysis; assay type: ADME, organism-based; design: dose 2 mg/kg, route intravenous, time infinity; settings: Sprague-Dawley, in vivo
[7] = Oral bioavailability in Sprague-Dawley rat at 5 mg/kg administered as single dose by LC-MS/MS analysis; assay type: ADME, organism-based; settings: Sprague-Dawley, in vivo
[8] = Cmax in Sprague-Dawley rat at 5 mg/kg, po administered as single dose by LC-MS/MS analysis; assay type: ADME, organism-based; design: dose 5 mg/kg, route oral; settings: in vivo
[9] = AUC (0 to 24 hrs) in Sprague-Dawley rat at 2 mg/kg, iv administered as single dose by LC-MS/MS analysis; assay type: ADME, organism-based; design: dose 2 mg/kg, time < 24 hr, route intravenous; settings: in vivo

Sequence of Cyclin-dependent kinase 4/cyclin D1 (P11802 whole entry): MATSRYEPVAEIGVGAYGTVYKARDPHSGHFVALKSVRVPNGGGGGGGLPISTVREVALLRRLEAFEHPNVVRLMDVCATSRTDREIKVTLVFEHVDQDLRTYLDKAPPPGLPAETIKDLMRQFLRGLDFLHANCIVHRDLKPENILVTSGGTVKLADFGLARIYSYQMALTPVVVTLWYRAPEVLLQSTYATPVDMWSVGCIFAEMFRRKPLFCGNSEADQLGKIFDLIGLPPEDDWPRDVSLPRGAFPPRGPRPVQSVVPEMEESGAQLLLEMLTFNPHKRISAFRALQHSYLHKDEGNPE
Sequence of Cyclin-dependent kinase 4/cyclin D1 (P24385 whole entry, further chain): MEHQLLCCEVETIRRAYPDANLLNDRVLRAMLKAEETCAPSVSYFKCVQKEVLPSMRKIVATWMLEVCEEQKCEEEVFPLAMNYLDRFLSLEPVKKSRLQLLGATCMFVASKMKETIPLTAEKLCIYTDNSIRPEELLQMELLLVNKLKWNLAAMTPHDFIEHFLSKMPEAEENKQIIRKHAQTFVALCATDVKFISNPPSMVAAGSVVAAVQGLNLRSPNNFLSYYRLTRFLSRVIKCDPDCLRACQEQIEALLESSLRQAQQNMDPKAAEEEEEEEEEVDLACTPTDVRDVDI

Row | Structure (SMILES) | IC50 [1] | IC50 (CDK1/Cyclin A) | Ratio IC50 (Homo sapiens) | IC50 (CDK6/cyclin D3) | AUC(0-t) at 24 h [2] | Vd [3] | clearance [4] | half-life [5] | AUC(0-inf) [6] | bioavailability [7] | Cmax [8] | AUC(0-t) at 24 h [9]
1 | CCC1(C)C(C)=Nc2ccc(-c3nc(Nc4ccc(N5CCN(C)CC5)cn4)ncc3F)cc21 (stereo not given) | 35 nM | 112 nM | 22 | 5 nM |  |  |  |  |  |  |  | 
2 | CCN1CCC(c2ccc(Nc3ncc(F)c(-c4cc(F)c5c(c4)C4(CCCC4)C(C)=N5)n3)nc2)CC1 | 6 nM |  | 268 | 4 nM | 1980 ng·h/mL | 11.6 L/kg | 10.8 mL/min/kg | 13.2 h | 3190 ng·h/mL | 35% | 143 ng/mL | 2250 ng·h/mL
3 | CCN1CCN(c2ccc(Nc3ncc(F)c(-c4cc(F)c5c(c4)C(C)(CC)C(C)=N5)n3)nc2)CC1 (stereo not given) |  | 65 nM | 1 |  |  |  |  |  |  |  |  | 
4 | CCN1CCC(c2ccc(Nc3ncc(F)c(-c4ccc5c(c4)C4(CCCC4)C(C)=N5)n3)nc2)CC1 |  |  | 5 |  |  |  |  |  |  |  |  | 
5 | CCC1(C)C(C)=Nc2c(F)cc(-c3nc(Nc4ccc(N5CCN(C)CC5)cn4)ncc3F)cc21 (stereo not given) | 6 nM | 153 nM | 153 | 1 nM |  | 6.4 L/kg | 69.2 mL/min/kg | 2.1 h | 504 ng·h/mL |  |  | 496 ng·h/mL
6 | CCN1CCN(Cc2ccc(Nc3ncc(F)c(-c4cc(F)c5c(c4)C(CC)(CC)C(C)=N5)n3)nc2)CC1 |  |  | 9 |  |  |  |  |  |  |  |  | 
7 | CCC1(C)C(C)=Nc2c(F)cc(-c3nc(Nc4ccc(C5CCNCC5)cn4)ncc3F)cc21 (stereo not given) |  | 110 nM | 18 | 6 nM |  |  |  |  |  |  |  | 
8 | CCC1(C)C(C)=Nc2ccc(-c3nc(Nc4ccc(N5CCNCC5)cn4)ncc3F)cc21 (stereo not given) | 28 nM | 142 nM | 14 |  |  |  |  |  |  |  |  | 
9 | CC1=Nc2ccc(-c3nc(Nc4ccc(N5CCNCC5)cn4)ncc3F)cc2C12CCCC2 | 4 nM |  | 58 | 4 nM | 980 ng·h/mL | 11 L/kg | 28.3 mL/min/kg | 4.8 h | 1180 ng·h/mL | 34% | 80.3 ng/mL | 1140 ng·h/mL
10 | CCN1CCC(c2ccc(Nc3ncc(F)c(-c4cc(F)c5c(c4)C(C)(CC)C(C)=N5)n3)nc2)CC1 (stereo not given) | 16 nM | 216 nM | 18 | 12 nM |  |  |  |  |  |  |  | 
11 | CC1=Nc2c(F)cc(-c3nc(Nc4ccc(C5CCNCC5)cn4)ncc3F)cc2C12CCCC2 | 8 nM |  | 818 | 0.4 nM | 867 ng·h/mL | 15.6 L/kg | 24.6 mL/min/kg | 8.6 h | 1370 ng·h/mL | 29% | 62.1 ng/mL | 1200 ng·h/mL
12 | CC1=Nc2c(F)cc(-c3nc(Nc4ccc(N5CCN(CCO)CC5)cn4)ncc3F)cc2C12CCCC2 | 17 nM |  | 55 | 6 nM |  |  |  |  |  |  |  | 
13 | CC1=Nc2ccc(-c3nc(Nc4ccc(C5CCN(C)CC5)cn4)ncc3F)cc2C12CCCC2 | 8 nM |  | 12 | 4 nM |  |  |  |  |  |  |  | 
14 | CCN1CCN(Cc2ccc(Nc3ncc(F)c(-c4ccc5c(c4)C4(CCCC4)C(C)=N5)n3)nc2)CC1 | 13 nM |  | 38 | 7 nM |  |  |  |  |  |  |  | 
15 | CCC1(C)C(C)=Nc2c(F)cc(-c3nc(Nc4ccc(C5CCN(C)CC5)cn4)ncc3F)cc21 (stereo not given) | 16 nM | 131 nM | 14 | 9 nM | 287 ng·h/mL | 40.1 L/kg | 77.8 mL/min/kg | 7 h | 447 ng·h/mL | 28% | 22.3 ng/mL | 404 ng·h/mL
16 | CCC1(CC)C(C)=Nc2c(F)cc(-c3nc(Nc4ccc(N5CCN(C)CC5)cn4)ncc3F)cc21 | 10 nM | 96 nM | 11 |  |  | 17.9 L/kg | 167 mL/min/kg | 1.4 h | 213 ng·h/mL |  |  | 204 ng·h/mL
17 | CCC1(C)C(C)=Nc2ccc(-c3nc(Nc4ccc(C5CCN(C)CC5)cn4)ncc3F)cc21 (stereo not given) | 18 nM | 54 nM | 6 | 9 nM |  |  |  |  |  |  |  | 
18 | CC1=Nc2c(F)cc(-c3nc(Nc4ccc(N5CCNCC5)cn4)ncc3F)cc2C1(C)C |  | 2220 nM | 52 |  |  |  |  |  |  |  |  | 
19 | CCN1CCN(c2ccc(Nc3ncc(F)c(-c4ccc5c(c4)C(C)(CC)C(C)=N5)n3)nc2)CC1 (stereo not given) |  | 101 nM | 25 | 4 nM |  |  |  |  |  |  |  | 
20 | CC1=Nc2ccc(-c3nc(Nc4ccc(C5CCNCC5)cn4)ncc3F)cc2C12CCCC2 | 4 nM |  | 7 | 4 nM |  |  |  |  |  |  |  | 
21 | CC1=Nc2c(F)cc(-c3nc(Nc4ccc(C5CCN(CCO)CC5)cn4)ncc3F)cc2C12CCCC2 |  |  | 352 | 0.5 nM |  |  |  |  |  |  |  | 
22 | CCC1(CC)C(C)=Nc2c(F)cc(-c3nc(Nc4ccc(N5CCNCC5)cn4)ncc3F)cc21 | 3 nM |  | 27 | 3 nM | 106 ng·h/mL | 28.1 L/kg | 125 mL/min/kg | 3 h | 270 ng·h/mL | 16% | 13.7 ng/mL | 256 ng·h/mL
23 | CC1=Nc2c(F)cc(-c3nc(Nc4ccc(N5CCN(C(C)C)CC5)cn4)ncc3F)cc2C12CCCC2 | 78 nM | 1060 nM | 106 | 10 nM |  |  |  |  |  |  |  | 
24 | CCC1(C)C(C)=Nc2ccc(-c3nc(Nc4ccc(C5CCNCC5)cn4)ncc3F)cc21 (stereo not given) |  | 166 nM | 10 | 16 nM |  |  |  |  |  |  |  | 
25 | CCN1CCC(c2ccc(Nc3ncc(F)c(-c4ccc5c(c4)C(C)(CC)C(C)=N5)n3)nc2)CC1 (stereo not given) | 42 nM | 125 nM | 6 | 19 nM |  |  |  |  |  |  |  | 
